These results are taken from BindingDB's records for patent US20230348442 (Idorsia Pharmaceuticals, 2023).

Chain of Galectin-3 (P17931 whole entry): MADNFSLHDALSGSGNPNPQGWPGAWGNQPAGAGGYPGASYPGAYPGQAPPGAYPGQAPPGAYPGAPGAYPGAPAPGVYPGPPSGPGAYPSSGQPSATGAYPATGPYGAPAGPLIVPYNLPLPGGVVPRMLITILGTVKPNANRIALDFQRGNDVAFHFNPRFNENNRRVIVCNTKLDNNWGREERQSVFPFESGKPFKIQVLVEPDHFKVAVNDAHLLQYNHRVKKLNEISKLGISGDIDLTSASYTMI
Chain of Galectin-1 (P09382 whole entry): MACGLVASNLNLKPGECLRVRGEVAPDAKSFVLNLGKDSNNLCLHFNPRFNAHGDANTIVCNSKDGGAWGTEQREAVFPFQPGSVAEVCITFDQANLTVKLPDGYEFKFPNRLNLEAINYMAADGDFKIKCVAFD

The first experiment concerns the target Galectin-1 (Homo sapiens, UniProt P09382). Description: Biological Assay. As to the method: (§1) The inhibitory activity of compounds is determined in competitive binding assays. This spectrophotometric assay measures the binding of biotinylated human Gal-3 (hGal-3) or human Gal-1 (hGal-1), respectively, to a microplate-adsorbed glycoprotein, asialofetuin (ASF) (Proc Natl Acad Sci USA. 2013 Mar. 26; 110(13):5052-7.). Alternatively, and preferably, a human Gal-1 version in which all six cysteines are substituted by serines may be used. Briefly, compounds are serially diluted in DMSO (working dilutions). ASF-coated 384 well plates are supplemented with 22.8 μL/well of biotinylated hGal-3 or hGal-1 in assay buffer (i.e. 300-1000 ng/mL biotinylated hGal-3 or hGal-1) to which 1.2 μL of compound working dilutions are added and mixed. Plates are incubated for 3 hours at 4° C., then washed with cold assay buffer (3×50 uL), incubated for 1 hour with 25 μL/well of a streptavidin-peroxidase solution (diluted in assay buffer to 80 ng/mL) at 4° C., followed by further washing steps with assay buffer (3×50 uL). Finally, 25 μL/well of ABTS substrate is added.
For `O=C([C@@H]1O[C@H](CO)[C@H](O)[C@H](n2cc(-c3cc(F)c(F)c(F)c3)nn2)[C@H]1O)N(c1cc(Cl)cc(Cl)c1)[C@H]1CCC[C@@H]1O` [US20230348442, Example 1H.1.2], the concentration for half-maximal inhibition (IC50) (in general, the point on the concentration scale where inhibition reaches its midpoint) was found to be 2090 nM. This lies in the single-digit micromolar range.

For a further experiment, the target named is Galectin-3 (Homo sapiens, UniProt P17931). Kind of experiment: Biological Assay. As to the method:
as §1
Compound `CO[C@@H]1[C@@H](n2cc(-c3cc(F)c(Br)c(F)c3)nn2)[C@@H](O)[C@@H](CO)O[C@H]1C(=O)N(c1cc(Br)cc(C#N)c1)[C@H]1CCC[C@@H]1O` [US20230348442, Example 1.6.5] registered an IC50 of 25.5 nM.

On to `O=C([C@@H]1O[C@H](CO)[C@H](O)[C@H](n2cc(-c3cc(F)c(F)c(F)c3)nn2)[C@H]1O)N(c1cc(Cl)cc(Cl)c1)[C@H]1CCC[C@@H]1O` [US20230348442, Example 1H.1.2], for which the IC50 came out at 29.4 nM.

`CO[C@@H]1[C@@H](n2cc(-c3cc(F)cc(Br)c3)nn2)[C@@H](O)[C@@H](CO)O[C@H]1C(=O)N(c1cc(Br)cc(C#N)c1)[C@H]1CCC[C@@H]1O` [US20230348442, Example 1.10.5] showed an IC50 of 69.2 nM. Compared with the last compound, the IC50 is about 2.4-fold higher.

`N#Cc1cc(Cl)cc(N(C(=O)[C@@H]2O[C@H](CO)[C@H](O)[C@H](n3cc(-c4cc(F)c(Cl)c(F)c4)nn3)[C@H]2O)[C@H]2CCC[C@@H]2O)c1` [US20230348442, Example 1H.5.4] came in with an IC50 of 19.9 nM.

Compound `CO[C@@H]1[C@@H](n2cc(-c3cc(F)c(F)c(F)c3)nn2)[C@@H](O)[C@@H](CO)O[C@H]1C(=O)N(c1cc(C)cc(Br)c1)[C@H]1CC[C@@H]1O` [US20230348442, Example 2.1.12] came in with an IC50 of 111 nM.
